Results from patent US7794967B2, “Method and kit for detection of novel pathogen inhibitors” (priority 2001, dated 2010).
Where two headings read alike, the source gives them in different places.

Columns and labels:
RNase P RNA [1] = assay: Inhibition of RNase P RNA cleavage; type: biochemical, Escherichia coli; details: value without asterisk; read-out: appKi inhibition of RNase P RNA cleavage
Experimental: The structure of some aminoglycosides that inhibit RNase P cleavage are depicted in FIG. 3. Aminoglycosides bind to RNA and displace functionally important divalent metal ions. Thus, aminoglycosides function as metal mimics (Mikkelsen et al., 2001).
RNase P cleavage and Pb2+-induced cleavage was performed and monitored according to standard protocols as described by Kufel and Kirsebom (1998). To determine the appKi value for a given substance RNase P cleavage or Pb2+-induced cleavage conditions were adjusted in such a way that measurements were carried out in the linear portion of the curve of kinetics of the cleavage reaction.

[2] = biological target: 31-mer RNA representing the P15-loop of RNase P RNA; assay: Inhibition of Pb2+-induced cleavage of the 31-mer model RNA (P15-loop); type: binding, Escherichia coli; details: aminoglycoside concentration that gives 50% inhibition of Pb2+-induced cleavage; read-out: appKi 31-mer RNA
[3] = biological target: Escherichia coli Klenow polymerase (pol) (Escherichia coli, UniProt P00582, D355A/E357A); assay: Inhibition of Klenow polymerase activity
[4] = biological target: T1, mammalian poly(A)-specific ribonuclease (PARN) (Bos taurus, UniProt P69341); assay: Inhibition of PARN deadenylation activity; type: biochemical, calf thymus; details: for IC50: appKi = aminoglycoside concentration resulting in 50% inhibition of PARN activity, pH 7.0
T1 sequence (P69341 1-430 limits assumed): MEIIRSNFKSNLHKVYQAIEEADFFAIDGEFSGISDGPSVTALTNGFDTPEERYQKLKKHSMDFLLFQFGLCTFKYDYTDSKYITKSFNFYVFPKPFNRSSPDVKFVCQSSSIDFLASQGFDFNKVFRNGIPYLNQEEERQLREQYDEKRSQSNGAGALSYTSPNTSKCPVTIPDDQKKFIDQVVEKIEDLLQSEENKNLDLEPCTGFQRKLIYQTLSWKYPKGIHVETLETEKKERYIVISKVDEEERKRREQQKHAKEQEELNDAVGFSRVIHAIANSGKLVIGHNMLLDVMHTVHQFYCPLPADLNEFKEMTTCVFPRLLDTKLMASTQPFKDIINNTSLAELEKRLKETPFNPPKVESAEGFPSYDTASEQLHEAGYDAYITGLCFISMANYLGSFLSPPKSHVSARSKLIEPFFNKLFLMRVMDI
From the text: Homogeneously purified calf thymus PARN 54 kDa active fragment was used as the source of PARN (Martinez et al. 2000). Recombinant full length human PARN was expressed and purified as described (Martinez et al. 2000). As the substrate we used L3(A30) RNA radioactively labelled in its poly(Å) tail (Åström et al. 1991). Assay conditions and 1-D TLC quantitation procedures were as previously described (Åström et al. 1992). The pH of the deadenylation reactions were 7.0, unless stated otherwise. The consumption of L3(A30) RNA substrate was controlled so that no more than 20% of it was consumed.

[5] = biological target: Bam HI restriction enzyme (Bacillus amyloliquefaciens, UniProt P23940); assay: In vitro inhibition of Bam HI restriction enzyme; type: biochemical; details: addition of 0.1-5 mM neomycin B
From the text: (§1) The mechanisms behind toxicity and severe side-effects are not understood and several potential causes have been discussed in the literature.

Klenow pol = assay: Fe(II) mediated hydroxyl radical cleavage of Klenow pol; type: binding, Escherichia coli
Experimental: 2-4 microgram of purified recombinant Klenow pol fragment or mutant thereof, dialysed against buffer F (20 mM HEPES-KOH pH 7.0, 5 mM NaCl) on a Milipore “V” Series Membrane (Millipore) for 30 minutes at 4° C., was incubated for 30 minutes at 37° C. in 50 mM HEPES pH 7.0, 5 mM NaCl, 20 micromolar Fe(NH4)2SO4 and 10 mM DTT in total volume of 10 microliter. The incubations were stopped by the addition of 10 microliter of 2×SDS-loading buffer (100 mM Tris-HCl pH 6.8, 2% (w/v) SDS, 200 mM DTT, 16%(v/v) glycerol, 0.05%(w/v) bromolphenol blue and 50 mM EDTA). The amount of added Mg(II)-ions, Mn(II)-ions or aminoglycoside was as indicated. Reacted polypeptides were fractionated by 10% SDS-polyacrylamide gel electrophoresis and subsequently visualised by silver staining.

PARN = biological target: T2, PARN (Homo sapiens, UniProt O95453); assay: Fe(II) mediated hydroxyl radical cleavage of PARN; type: binding
T2 construct: Recombinant full length human PARN was expressed and purified as described; made in house; host or cells: E. coli
T2 sequence (O95453 1-639): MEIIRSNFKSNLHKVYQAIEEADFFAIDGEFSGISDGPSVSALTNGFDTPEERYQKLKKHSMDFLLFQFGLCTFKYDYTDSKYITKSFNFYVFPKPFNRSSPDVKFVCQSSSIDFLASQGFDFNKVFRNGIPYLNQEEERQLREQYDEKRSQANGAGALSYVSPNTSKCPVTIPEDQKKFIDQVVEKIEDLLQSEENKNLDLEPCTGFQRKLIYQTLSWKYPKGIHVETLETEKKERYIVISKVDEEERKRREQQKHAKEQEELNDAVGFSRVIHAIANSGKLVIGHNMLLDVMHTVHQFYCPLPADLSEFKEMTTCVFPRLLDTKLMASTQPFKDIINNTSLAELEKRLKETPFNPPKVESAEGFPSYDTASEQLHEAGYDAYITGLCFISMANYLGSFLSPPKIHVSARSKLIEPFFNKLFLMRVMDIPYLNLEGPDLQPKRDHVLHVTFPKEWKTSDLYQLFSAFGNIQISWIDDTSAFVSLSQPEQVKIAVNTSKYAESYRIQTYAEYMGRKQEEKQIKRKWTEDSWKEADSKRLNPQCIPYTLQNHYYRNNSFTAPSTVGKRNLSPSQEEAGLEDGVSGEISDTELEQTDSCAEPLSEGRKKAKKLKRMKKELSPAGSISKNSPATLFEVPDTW
Experimental: Recombinant PARN polypeptides expressed in E. coli were purified and radioactively labelled in their N-termini. Fe(II) mediated hydroxyl radical cleavage, of PARN was essentially performed as described above. Reacted samples were subjected to 10% SDS-polyacrylamide gel electrophoresis and the resulting gel was subsequently visualized and quantified using a 400 S PhosphorImager (Molecular Dynamics). In the Mg(II) and Mn(II) ions competition experiments, MgCl2 or MnCl2 was added at indicated concentration in the presence of 20 micromolar Fe(NH4)2SO4.

[6] = tested on: Full-size E. coli RNase P RNA; details: Mikkelsen et al., 1999; cited from earlier work
[7] = biological target: T3, HIV reverse transcriptase (Human immunodeficiency virus type 1 group M subtype B, UniProt P04585); assay: In vitro inhibition of HIV reverse transcriptase; type: biochemical; details: addition of 0.1-5 mM neomycin B
T3 construct: HIV reverse transcriptase
From the text: as §1

bacterial RNase H = bacterial RNase H (Escherichia coli, UniProt P0A7Y4); assay: In vitro inhibition of bacterial RNase H; type: biochemical; details: addition of 0.1-5 mM neomycin B
From the text: as §1

[8] = biological target: mammalian poly(A) polymerase (Homo sapiens, UniProt P51003); assay: In vitro inhibition of mammalian poly(A) polymerase; type: biochemical; details: addition of 0.1-5 mM neomycin B
From the text: as §1

Taq DNA polymerase = Taq DNA polymerase (Thermus aquaticus, UniProt P19821); assay: In vitro inhibition of Taq DNA polymerase; type: biochemical; details: addition of 0.1-5 mM neomycin B
From the text: as §1

T7 RNA polymerase = T7 RNA polymerase (Escherichia phage T7, UniProt P00573); assay: In vitro inhibition of T7 RNA polymerase; type: biochemical; details: addition of 0.1-5 mM neomycin B
From the text: as §1

RNase P RNA [9] = details: values marked *, from Mikkelsen et al., 1999; read-out: appKi inhibition of RNase P RNA cleavage; cited from earlier work
[10] = read-out: appKi (for KL pol), […], pH 7.0

Escherichia coli Klenow polymerase (pol), sequence (P00582 324-928 D355A/E357A): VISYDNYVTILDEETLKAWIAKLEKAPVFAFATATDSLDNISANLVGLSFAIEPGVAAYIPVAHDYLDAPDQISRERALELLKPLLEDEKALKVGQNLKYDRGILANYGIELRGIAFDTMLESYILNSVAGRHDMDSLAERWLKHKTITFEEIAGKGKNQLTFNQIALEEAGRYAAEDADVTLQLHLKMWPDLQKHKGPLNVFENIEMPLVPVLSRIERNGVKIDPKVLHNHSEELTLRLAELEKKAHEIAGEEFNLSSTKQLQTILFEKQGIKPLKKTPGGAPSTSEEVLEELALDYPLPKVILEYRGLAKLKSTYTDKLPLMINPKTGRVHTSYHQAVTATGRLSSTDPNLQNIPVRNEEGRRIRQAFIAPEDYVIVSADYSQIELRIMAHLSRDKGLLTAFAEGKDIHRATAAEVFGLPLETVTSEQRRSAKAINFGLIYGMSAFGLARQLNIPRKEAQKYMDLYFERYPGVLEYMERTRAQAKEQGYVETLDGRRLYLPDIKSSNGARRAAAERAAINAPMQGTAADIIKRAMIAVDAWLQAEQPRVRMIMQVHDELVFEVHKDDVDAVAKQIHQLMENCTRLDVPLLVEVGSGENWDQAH
Bam HI restriction enzyme, sequence (P23940 whole entry): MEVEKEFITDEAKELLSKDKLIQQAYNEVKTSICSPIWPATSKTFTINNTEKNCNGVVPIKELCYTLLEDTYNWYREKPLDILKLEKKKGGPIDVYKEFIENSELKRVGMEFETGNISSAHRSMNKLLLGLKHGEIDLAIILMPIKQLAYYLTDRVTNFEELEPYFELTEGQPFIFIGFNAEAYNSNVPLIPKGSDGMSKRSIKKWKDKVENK
Taq DNA polymerase, sequence (P19821 whole entry): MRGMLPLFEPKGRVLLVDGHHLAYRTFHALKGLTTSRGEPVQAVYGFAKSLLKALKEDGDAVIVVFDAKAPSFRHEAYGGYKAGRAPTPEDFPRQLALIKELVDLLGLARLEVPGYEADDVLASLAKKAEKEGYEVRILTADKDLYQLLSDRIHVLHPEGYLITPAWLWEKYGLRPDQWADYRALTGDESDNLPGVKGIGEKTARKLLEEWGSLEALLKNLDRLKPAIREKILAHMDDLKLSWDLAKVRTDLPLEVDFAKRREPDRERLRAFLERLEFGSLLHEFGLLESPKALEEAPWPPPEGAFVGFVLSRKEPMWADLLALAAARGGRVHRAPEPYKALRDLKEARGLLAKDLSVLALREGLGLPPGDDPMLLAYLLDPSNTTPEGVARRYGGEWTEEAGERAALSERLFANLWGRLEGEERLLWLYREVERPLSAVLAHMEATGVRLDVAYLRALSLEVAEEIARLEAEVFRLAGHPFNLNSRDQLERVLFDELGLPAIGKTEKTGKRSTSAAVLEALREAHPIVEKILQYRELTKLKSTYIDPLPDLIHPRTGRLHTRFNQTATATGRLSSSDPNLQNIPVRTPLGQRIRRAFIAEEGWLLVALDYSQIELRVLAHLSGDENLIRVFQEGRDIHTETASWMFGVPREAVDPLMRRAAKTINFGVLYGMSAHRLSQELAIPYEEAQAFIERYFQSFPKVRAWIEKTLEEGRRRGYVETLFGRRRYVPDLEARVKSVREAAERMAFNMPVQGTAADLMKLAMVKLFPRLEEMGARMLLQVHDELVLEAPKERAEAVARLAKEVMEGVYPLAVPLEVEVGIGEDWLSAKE
mammalian poly(A) polymerase, sequence (P51003 whole entry): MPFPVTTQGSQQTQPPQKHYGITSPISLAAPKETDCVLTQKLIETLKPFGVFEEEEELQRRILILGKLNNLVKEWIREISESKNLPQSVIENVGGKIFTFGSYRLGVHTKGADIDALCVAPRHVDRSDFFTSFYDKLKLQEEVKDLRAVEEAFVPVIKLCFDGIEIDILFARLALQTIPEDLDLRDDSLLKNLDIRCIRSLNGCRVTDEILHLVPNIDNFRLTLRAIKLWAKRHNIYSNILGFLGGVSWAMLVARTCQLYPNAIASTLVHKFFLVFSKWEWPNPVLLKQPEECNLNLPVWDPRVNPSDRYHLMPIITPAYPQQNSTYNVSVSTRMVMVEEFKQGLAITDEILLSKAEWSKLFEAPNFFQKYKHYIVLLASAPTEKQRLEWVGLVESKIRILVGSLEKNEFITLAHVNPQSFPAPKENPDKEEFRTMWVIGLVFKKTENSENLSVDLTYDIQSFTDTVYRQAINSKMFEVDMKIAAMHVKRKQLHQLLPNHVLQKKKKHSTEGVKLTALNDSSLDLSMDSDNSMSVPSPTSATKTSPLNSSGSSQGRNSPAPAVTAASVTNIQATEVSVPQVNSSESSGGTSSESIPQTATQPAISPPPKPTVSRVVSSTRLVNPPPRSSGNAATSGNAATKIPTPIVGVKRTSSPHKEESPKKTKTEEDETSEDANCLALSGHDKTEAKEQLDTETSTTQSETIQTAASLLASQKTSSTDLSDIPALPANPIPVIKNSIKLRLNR
bacterial RNase H, sequence (P0A7Y4 whole entry): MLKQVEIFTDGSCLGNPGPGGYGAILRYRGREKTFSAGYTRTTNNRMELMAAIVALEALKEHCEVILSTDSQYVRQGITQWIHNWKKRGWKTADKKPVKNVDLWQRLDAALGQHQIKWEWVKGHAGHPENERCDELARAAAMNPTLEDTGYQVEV
T7 RNA polymerase, sequence (P00573 whole entry): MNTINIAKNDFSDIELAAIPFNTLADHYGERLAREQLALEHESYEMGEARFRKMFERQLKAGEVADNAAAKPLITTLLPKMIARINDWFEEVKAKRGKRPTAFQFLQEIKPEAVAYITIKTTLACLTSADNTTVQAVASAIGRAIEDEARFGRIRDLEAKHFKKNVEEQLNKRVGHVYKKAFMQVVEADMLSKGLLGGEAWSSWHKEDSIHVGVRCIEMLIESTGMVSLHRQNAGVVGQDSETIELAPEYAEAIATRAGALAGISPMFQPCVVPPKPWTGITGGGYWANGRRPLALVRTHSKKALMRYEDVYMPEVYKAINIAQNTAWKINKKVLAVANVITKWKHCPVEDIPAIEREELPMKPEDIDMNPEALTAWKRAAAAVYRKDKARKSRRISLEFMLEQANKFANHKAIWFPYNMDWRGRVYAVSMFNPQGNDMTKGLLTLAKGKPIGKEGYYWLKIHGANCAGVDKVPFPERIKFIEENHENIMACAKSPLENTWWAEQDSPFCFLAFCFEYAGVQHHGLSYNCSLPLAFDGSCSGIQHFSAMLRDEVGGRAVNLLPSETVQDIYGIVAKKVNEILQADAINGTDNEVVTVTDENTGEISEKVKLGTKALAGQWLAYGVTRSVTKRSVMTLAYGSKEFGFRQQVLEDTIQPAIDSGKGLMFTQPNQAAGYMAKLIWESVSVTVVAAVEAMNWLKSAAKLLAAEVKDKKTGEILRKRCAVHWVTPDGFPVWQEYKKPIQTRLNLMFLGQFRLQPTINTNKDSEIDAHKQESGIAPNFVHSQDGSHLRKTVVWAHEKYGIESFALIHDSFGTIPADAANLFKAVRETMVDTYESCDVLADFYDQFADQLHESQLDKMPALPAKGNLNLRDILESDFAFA

For `CN[C@@H]1[C@@H](O)[C@@H](O[C@@H]2[C@H](O)[C@H](O[C@H]3OC(CN)=CC[C@H]3N)[C@@H](N)C[C@H]2N)OC[C@]1(C)O` [5-epi-Sisomicin], the IC50 (RNase P RNA [1]) was roughly 3 µM and the IC50 [2] was 1.2 µM.
`NC[C@H]1O[C@H](O[C@H]2[C@H](O)[C@@H](O[C@H]3O[C@H](CO)[C@@H](O)[C@H](N)[C@H]3O)[C@H](N)C[C@@H]2N)[C@H](O)[C@@H](O)[C@@H]1O` [Kanamycin A] gave an IC50 [3, 10] of 14300 ± 1700 µM.
Compound `NC[C@H]1O[C@H](O[C@H]2[C@H](O)[C@@H](O[C@H]3O[C@H](CO)[C@@H](O)[C@H](N)[C@H]3O)[C@H](N)C[C@@H]2N)[C@H](N)[C@@H](O)[C@@H]1O` [Kanamycin B] has an IC50 [3, 10] of 9200 ± 300 µM and an IC50 [4] of 7.3 ± 0.4 µM.
`NC[C@@H]1O[C@H](O[C@H]2[C@@H](O)[C@H](O[C@@H]3[C@@H](O)[C@H](N)C[C@H](N)[C@H]3O[C@H]3O[C@H](CO)[C@@H](O)C[C@H]3N)O[C@@H]2CO)[C@H](N)[C@@H](O)[C@@H]1O[C@H]1O[C@H](CO)[C@@H](O)[C@H](O)[C@@H]1O` [Lividomycin] gave an IC50 [3] of 11600 ± 2000 µM and an IC50 [4] of 18.7 ± 2.8 µM.
In the case of `NC[C@@H]1O[C@H](O[C@H]2[C@@H](O)[C@H](O[C@@H]3[C@@H](O)[C@H](N)C[C@H](N)[C@H]3O[C@H]3O[C@H](CN)[C@@H](O)[C@H](O)[C@H]3N)O[C@@H]2CO)[C@H](N)[C@@H](O)[C@@H]1O` [Neomycin B], the “inhibition of Bam HI restriction enzyme” value [5] is reported as “can be inhibited”, the “mode of inhibition (enzyme kinetic analyses)” value ([3]; Klenow pol) is reported as “mixed non-competitive inhibitor” and the “pH dependence of inhibition” value ([3]; Klenow pol) is reported as “pH dependent”. The IC50 [3, 10] was 4800 ± 300 µM, the “effect on iron mediated cleavage at the active site” value (Klenow pol) was “interfered with iron mediated cleavage” and the “effect on iron mediated cleavage at the active site” value (PARN) was “interfered with iron mediated cleavage”. The “inhibition of Pb2+-induced cleavage of E. coli RNase P RNA” value [6] was “inhibited”, the “inhibition of HIV reverse transcriptase” value [7] was “can be inhibited” and the “inhibition of bacterial RNase H” value (bacterial RNase H) was “can be inhibited”. The “inhibition of mammalian poly(A) polymerase” value [8] was “can be inhibited”, the “mode of inhibition (enzyme kinetic analyses)” value ([4]; PARN) was “mixed non-competitive inhibitor” and the “pH dependence of inhibition” value ([4]; PARN) was “pH dependent”. For the same compound, the IC50 [4] was 0.4 ± 0.1 µM, the “inhibition of Taq DNA polymerase” value (Taq DNA polymerase) was “can be inhibited” and the “inhibition of T7 RNA polymerase” value (T7 RNA polymerase) was “can be inhibited”. For the same compound, the IC50 (RNase P RNA [9]) was 35 ± 12 µM and the IC50 [2] was 40 µM.
In the case of `NC[C@@H]1O[C@H](O[C@H]2[C@@H](O)[C@H](O[C@@H]3[C@@H](O)[C@H](N)C[C@H](N)[C@H]3O[C@H]3O[C@H](CO)[C@@H](O)[C@H](O)[C@H]3N)O[C@@H]2CO)[C@H](N)[C@@H](O)[C@@H]1O` [Paromomycin], the IC50 [3] is listed as 10300 ± 800 µM, the IC50 [4] is listed as 17.3 ± 3.5 µM and the IC50 (RNase P RNA [9]) is listed as 190 ± 12 µM. It also gave an IC50 [2] of 340 µM.
Compound `CN[C@@H]1[C@@H](O)[C@@H](O[C@@H]2[C@@H](O)[C@H](O[C@H]3OC(CN)=CC[C@H]3N)[C@@H](N)C[C@H]2N)OC[C@]1(C)O` [Sisomicin] has an IC50 [2] of 17 µM.
Work on `NC[C@H]1O[C@H](O[C@H]2[C@H](O)[C@@H](O[C@H]3O[C@H](CO)[C@@H](O)[C@H](N)[C@H]3O)[C@H](N)C[C@@H]2N)[C@H](N)C[C@@H]1O` [Tobramycin] yielded an IC50 [3] of 9300 ± 700 µM and an IC50 [4] of 7.1 ± 0.2 µM.
